In the first test the test system is Patched pathway / ultraviolet radiation-induced BCC tumors. The test can be described thus: Adult BCC mouse skin punch assay (UV-irradiated Ptc heterozygous transgenic mice). In kind it is cell-based. The conditions noted are these: jervine positive control, 6 days, vs vehicle. Here is the method: Ptc heterozygous transgenic mice were irradiated 3 times weekly for 6 months, during which time many small, and often microscopic, BCC tumors developed. Four-mm diameter skin punch explants, presumably containing BCC structures, were cultured for 6 days in the presence of vehicle, the positive control […]), or 5 μM D. At the end of the experiment, the explants were analyzed by X-gal staining to detect the level of Patched pathway activity, by histology to determine the effect of treatment on the morphology of ultraviolet radiation-induced BCCs, and by quantifying the level of gli-1 mRNA expression to characterize the extent of pathway inhibition.
Take `CC1=C2C(=O)[C@H]3[C@@H](CC=C4C[C@@H](O)CC[C@@]43C)[C@@H]2CC[C@]12O[C@@H]1C[C@H](C)CN[C@H]1[C@H]2C` [jervine, reference compound]: the “number and size of BCC structures (X-gal staining)” value was “greatly decreased”.

In the next test the test system is Ptc-null cells (gli-1 mRNA, Patched pathway). The test can be described thus: Ptc-null assay: gli-1 mRNA by RT-PCR and quantitative real-time PCR. In kind it is cell-based, mouse. The conditions noted are these: 3 days, 5 μM jervine. Here is the method: Ptc-null cells were cultured for 3 days in the presence of vehicle; jervine, a known Patched pathway antagonist (i) used here as a positive control; or 1 μM of compound D. Total ribonucleic acid (RNA) was isolated from the cells and used for reverse transcriptase-polymerase chain reaction (RT-PCR). […] The gli-1 and actin mRNA samples were then loaded on 1.5% agarose gel and were detected by staining with ethidium bromide. The same samples were analyzed by the quantitative real-time polymerase chain reaction method to quantify the levels of gli-1 MRNA.
(In qPCR the cycle at which signal appears reflects the starting amount.)
As to `CC1=C2C(=O)[C@H]3[C@@H](CC=C4C[C@@H](O)CC[C@@]43C)[C@@H]2CC[C@]12O[C@@H]1C[C@H](C)CN[C@H]1[C@H]2C` [jervine, reference compound], the “gli-1 mRNA levels (quantitative real-time PCR)” value is on record as “downregulated”.

Staying with this test, now noted: 3 days, 5 μM jervine, vs vehicle.
`CC1=C2C(=O)[C@H]3[C@@H](CC=C4C[C@@H](O)CC[C@@]43C)[C@@H]2CC[C@]12O[C@@H]1C[C@H](C)CN[C@H]1[C@H]2C` [jervine, reference compound]: the “expression of gli-1 mRNA (RT-PCR, agarose gel)” value is reported as “significantly decreased”.

The next test has as its system Hedgehog pathway. Kind of test: Gli-Luc assay (Hedgehog-responsive Luciferase reporter), 10T1/2(s12) cells with OCT-SHH. It is filed as cell-based. The conditions noted are these: OCT-SHH 0.3 μg/ml. The protocol: Compounds to be tested are dissolved in DMSO to a concentration of 10 MM, and stored at −20° C. To activate the Hedgehog pathway in the assay cells, an octylated (lipid-modified) form of the N-terminal fragment of the Sonic Hedgehog protein (OCT-SHH) is used. This N-terminal SHH fragment is produced bacterially.
Compounds may be tested in the “Gli-Luc” assay below, using the cell line 10T(s12), wherein the cells contain a Hedgehog-responsive reporter construct utilizing Luciferase as the reporter gene. In this way, Hedgehog pathway signaling activity can be measured via the Gli-Luc response.
10t1/2(s12) cells are plated in a 96-well micro-titer plate (MTP) at 20,000 cells/well in full medium [DMEM with 10% FBS]. Then plates are placed in the incubator for incubation overnight (O/N), at 37° C. and 5% CO2. After 24 h, the medium is replaced with Luciferase-assay medium (DMEM with 0.5% FBS). Compounds are thawed and diluted in assay medium at 3:1000 (about 300-fold) resulting in a starting concentration of about 30 μM.
Subsequently, 150 μl of each 30 μM sample is added to the first wells (in triplicate). The MTP samples are then diluted at 3-fold dilutions to a total of seven wells, ultimately resulting in a regiment of seven dilutions in triplicate, for each compound. Next, the protein ligand OCT-SHH is diluted in Luciferase-assay medium and added to each well at a final concentration of 0.3 μg/ml. Plates are then returned to the incubator for further incubation O/N, at 37° C. and 5% CO2. After about 24 h, plates are removed from the incubator and the medium is aspirated/discarded. Wells are washed once with assay buffer [PBS +1 mM Mg^2+and 1 mM Ca^2+]. Then 50 μl of assay buffer is added to each well. The Luciferase assay reagent is prepared as described by the vendor (LucLite kit from Packard), and 50 μl is added to each well. Plates are incubated at room temperature (RT) for about 30 minutes after which the signals are read, again at RT, on a Topcount (Packard).
A general note: In a reporter assay the amount or activity of a reporter protein is the signal.
As a reminder, the IC50 is the concentration needed to halve the response being measured. `COc1cccc(CN(C(=O)C2CCCC2)C2CC(C(=O)N3CCNCC3)N(Cc3ccc4c(c3)OCCO4)C2)c1` (stereo not shown) [W′] showed an IC50 of less than 1000 nM.
In turn, `COc1cccc(CN(C(=O)CC(C)CCC=C(C)C)C2CC(C(=O)N3CCNCC3)N(Cc3ccc4c(c3)OCO4)C2)c1` (stereo not shown) [Q″] had a concentration for half-maximal inhibition (IC50) of less than 10000 nM.
In turn, `COc1cccc(CN(C(=O)CC(C)C)C2CC(C(=O)N3CCNCC3)N(Cc3ccc4c(c3)OCCO4)C2)c1` (stereo not shown) [H] came in with an IC50 of less than 100 nM.
The same measure, in the same setting: the result for `COc1cccc(CN(C(=O)c2ccco2)C2CC(C(=O)N3CCNCC3)N(Cc3ccc4c(c3)OCCO4)C2)c1` (stereo not shown) [Q′] reads less than 10000 nM.
`COc1cccc(CN(C(=O)CC(C)(C)C)C2CC(C(=O)N3CCNCC3)N(Cc3ccc4c(c3)OCO4)C2)c1` (stereo not shown) [N] showed an IC50 of less than 1000 nM.
The same measure, in the same setting: with `COc1cccc(CN(C(=O)C2CC2)C2CC(C(=O)N3CCNCC3)N(Cc3ccc(F)cc3)C2)c1` (stereo not shown) [W] the figure was less than 1000 nM; with `COc1cccc(CN(C(=O)CC(C)(C)C)[C@H]2C[C@@H](C(=O)N3CCNCC3)N(Cc3ccc(Br)s3)C2)c1` [C″], less than 1000 nM; with `COc1cccc(CN(C(=O)CC(C)(C)C)[C@H]2C[C@@H](C(=O)N3CCNCC3)N(Cc3cc(C)c(C)o3)C2)c1` [G″], less than 1000 nM.
`CCC(=O)N(Cc1cccc(OC)c1)C1CC(C(=O)N2CCNCC2)N(Cc2ccc(OC)c(OC)c2OC)C1` (stereo not shown) [S′] displayed an IC50 of less than 10000 nM.
In turn, `COC(=O)c1ccsc1CN1CC(N(Cc2cccc(OC)c2)C(=O)CC(C)(C)C)CC1C(=O)N1CCNCC1` (stereo not shown) [B″] had an IC50 of less than 1000 nM.
Still for that read-out and setting: with `COc1cccc(CN(C(=O)CC(C)(C)C)C2CC(C(=O)N3CCNCC3)N(Cc3ccc(OC)c(OC)c3OC)C2)c1` (stereo not shown) [K] the figure was less than 100 nM.
On the same count and under the same terms, the result for `COc1cccc(CN(C(=O)C2CC2)C2CC(C(=O)N3CCNCC3)N(Cc3ccc(C)s3)C2)c1` (stereo not shown) [B] reads less than 1000 nM.
The same measure, in the same setting: the result for `COc1cccc(CN(C(=O)C2CC2)C2CC(C(=O)N3CCNCC3)N(CC(C)C)C2)c1` (stereo not shown) [A′] reads less than 10000 nM; that for `COc1cccc(CN(C(=O)CC(C)(C)C)C2CC(C(=O)N3CCNCC3)N(Cc3ccc(F)cc3)C2)c1` (stereo not shown) [X], less than 10000 nM.
`COc1cccc(CN(C(=O)CC(C)(C)C)C2CC(C(=O)N3CCNCC3)N(Cc3ccc4c(c3)OCO4)C2)c1` (stereo not shown) [M] yielded an IC50 of less than 1000 nM.
Same read-out and setting: the result for `CC(C)CC(=O)N(Cc1cccc(OCc2ccccc2)c1)C1CC(C(=O)N2CCNCC2)N(Cc2ccc3c(c2)OCO3)C1` (stereo not shown) [Y″] reads less than 10000 nM.
On the same count and under the same terms, the result for `CC(C)CC(=O)N(Cc1cccc(C#N)c1)C1CC(C(=O)N2CCNCC2)N(Cc2ccc3c(c2)OCO3)C1` (stereo not shown) [S″] reads less than 1000 nM; that for `COc1cccc(CN(C(=O)CC(C)C)C2CC(C(=O)N3CCNCC3)N(Cc3ccsc3)C2)c1` (stereo not shown) [G], less than 1000 nM; that for `COCC(=O)N(Cc1cccc(OC)c1)[C@H]1C[C@@H](C(=O)N2CCNCC2)N(Cc2ccc3c(c2)OCO3)C1` [P″], less than 10000 nM.

These data come from patent US20020165221A1, “Mediators of hedgehog signaling pathways, compositions and uses related thereto” (priority 2000, published 2002).
